In the NIST ThermoML archive (doi:10.1021/je060001s) one finds refractive index and mass density data, which are given here for four compounds.

Structures are written as SMILES. ± gives the expanded uncertainty stated by the source.

A word on the refractive index: it is the speed of light in vacuum divided by its phase velocity in the sample. In general, mass density refers to mass per unit of volume.

The nature of series [1]: refractive index (Na D-line) (dimensionless). To be noted: 298.15 K; 101.33 kPa; Liquid; Standard Abbe refractometry.
For series [2] the following is noted: 298.15 K; 101.33 kPa; Liquid.

With `CCCCCC(=O)OC` [methyl hexanoate], in series [1], the refractive index amounted to 1.4048 ± 0.0004. The mass density in series [2] amounted to 879.47 ± 0.39 kg/m3.

`CC#N` [acetonitrile]: the refractive index in series [1] came to 1.3418 ± 0.0004. Moreover, the mass density in series [2] amounted to 776.62 ± 0.52 kg/m3.

As to `CCCCC(=O)OC` [methyl pentanoate], the refractive index in series [1] was 1.3971 ± 0.0004. Moreover, the mass density in series [2] is recorded as 884.8 ± 0.38 kg/m3.

In the case of `CCCC(=O)OC` [methyl butanoate], the refractive index in series [1] came to 1.3847 ± 0.0004. Also, the mass density in series [2] was determined as 892.16 ± 0.37 kg/m3.
